Source: patent US6355799B1, “Substituted benzene compounds, process for their preparation, and herbicidal and defoliant compositions containing them” (ISK Americas Incorporated, priority 1997, dated 2002)

Tests used:
Format in all cases: in vivo
[1] = system: large crabgrass (Digitaria sanguinalis, DIGSA); experiment: Pre-emerge test, greenhouse herbicide activity screening; conditions: phytotoxicity rating 0-100, 14 days after application
In short: (§1)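 Visual ratings on a 0-100 scale (0 no damage, 100 all plants dead) were taken at 14 days after treatment. Rates of 15-1000 g ai/ha in acetone, 187 l/ha, were sprayed onto soil one day after planting (pre-emerge) or onto 2-3 leaf plants with 0.25% v/v surfactant (post-emerge).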

[2] = system: barnyardgrass (Echinochloa crus-galli, ECHCG); experiment: as above; conditions: phytotoxicity rating 0-100, 14 days after application
In short: as §1

[3] = system: green foxtail (Setaria viridis, SETVI); experiment: as above; conditions: phytotoxicity rating 0-100, 14 days after application
In short: as §1

[4] = system: ivyleaf morningglory (Ipomoea hederacea, IPOHE); experiment: as above; conditions: phytotoxicity rating 0-100, 14 days after application
In short: as §1

[5] = system: velvetleaf (Abutilon theophrasti, ABUTH); experiment: as above; conditions: phytotoxicity rating 0-100, 14 days after application
In short: as §1

[6] = system: lambsquarters (Chenopodium album, CHEAL); experiment: as above; conditions: phytotoxicity rating 0-100, 14 days after application
In short: as §1

[7] = system: johnsongrass (Sorghum halepense, SORHA); experiment: as above; conditions: phytotoxicity rating 0-100, 14 days after application
In short: as §1

[8] = system: sicklepod (Cassia obtusifolia, CASOB); experiment: as above; conditions: phytotoxicity rating 0-100, 14 days after application
In short: as §1

[9] = system: upland rice (Oryza sp., var. Tebonnet, RICE); experiment: Pre-emerge test, crop safety; conditions: crop damage rating 0-100, 14 days after application
In short: (§2)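 Fourteen days after spraying, crop and weed injury was graded visually from 0, no effect, to 100, every plant dead. Test substances were dissolved in acetone and applied at 15–1000 g ai/ha with a flat-fan nozzle. Application was either pre-emergence, one day after sowing, or post-emergence at the 2–3 leaf stage.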

[10] = system: field corn (Zea mays L., var. Dekalb 535, CORN); experiment: Pre-emerge test, crop safety; conditions: crop damage rating 0-100, 14 days after application
In short: as §2

[11] = system: redroot pigweed (Amaranthus retroflexus, AMARE); experiment: Pre-emerge test, greenhouse herbicide activity screening; conditions: phytotoxicity rating 0-100, 14 days after application
In short: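 Rating: 0–100 visual injury, 14 DAA. Application: acetone, 187 l/ha, 15–1000 g ai/ha, flat-fan track sprayer with nozzle 40–45 cm above soil or canopy. Post-emerge runs used 0.25% v/v surfactant on 2–3 leaf plants.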

[12] = system: upland rice (Oryza sp., var. Tebonnet, RICE); experiment: Post-emerge test, crop safety; conditions: post-emerge, 14 days after application, rating scale 0-100
In short: as §1

[13] = system: field corn (Zea mays L., var. Dekalb 535, CORN); experiment: Post-emerge test, crop safety; conditions: post-emerge, 14 days after application, rating scale 0-100
In short: as §1

[14] = system: large crabgrass (Digitaria sanguinalis, DIGSA); experiment: Post-emerge test, greenhouse herbicide activity screening; conditions: post-emerge, 14 days after application, rating scale 0-100
In short: (§3)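 Compounds in acetone were track-sprayed at 15–1000 g ai/ha: pre-emergence onto soil sown the previous day, then top-watered to incorporate and later bottom-watered; post-emergence onto 2–3 leaf plants with 0.25% v/v surfactant, bottom-watered only. Ratings on a 0–100 phytotoxicity scale were taken at day 14.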

[15] = system: barnyardgrass (Echinochloa crus-galli, ECHCG); experiment: as above; conditions: post-emerge, 14 days after application, rating scale 0-100
In short: as §3

[16] = system: redroot pigweed (Amaranthus retroflexus, AMARE); experiment: as above; conditions: post-emerge, 14 days after application
In short: as §3

[17] = system: green foxtail (Setaria viridis, SETVI); experiment: as above; conditions: post-emerge, 14 days after application, rating scale 0-100
In short: as §3

[18] = system: ivyleaf morningglory (Ipomoea hederacea, IPOHE); experiment: as above; conditions: post-emerge, 14 days after application, rating scale 0-100
In short: as §3

[19] = system: velvetleaf (Abutilon theophrasti, ABUTH); experiment: as above; conditions: post-emerge, 14 days after application, rating scale 0-100
In short: as §3

[20] = system: lambsquarters (Chenopodium album, CHEAL); experiment: as above; conditions: post-emerge, 14 days after application, rating scale 0-100
In short: as §3

[21] = system: johnsongrass (Sorghum halepense, SORHA); experiment: as above; conditions: post-emerge, 14 days after application, rating scale 0-100
In short: as §3

[22] = system: sicklepod (Cassia obtusifolia, CASOB); experiment: as above; conditions: post-emerge, 14 days after application, rating scale 0-100
In short: as §3

Q: For COc1c(Cl)cc(F)c(-n2c(=O)cc(C(F)(F)F)n(C)c2=O)c1NC(=O)OCc1ccccc1C(F)(F)F [4-33], which “Pre-emerge Herbicidal Activity DIGSA” value ([1]; 63 g ai/ha) is on record?
A: The value was 45.

Q: And the “Pre-emerge Herbicidal Activity DIGSA” value ([1]; 250 g ai/ha)?
A: Its value is 90.

Q: And the “Pre-emerge Herbicidal Activity ECHCG” value ([2]; 63 g ai/ha)?
A: The value was 20.

Q: What about the “Pre-emerge Herbicidal Activity ECHCG” value ([2]; 250 g ai/ha) of the same compound?
A: Its value is 80.

Q: What about the “Pre-emerge Herbicidal Activity SETVI” value ([3]; 63 g ai/ha) of the same compound?
A: The value was 100.

Q: And the “Pre-emerge Herbicidal Activity SETVI” value ([3]; 250 g ai/ha)?
A: The value was 100.

Q: And the “Pre-emerge Herbicidal Activity IPOHE” value ([4]; 63 g ai/ha)?
A: Its value is 0.

Q: What about the “Pre-emerge Herbicidal Activity IPOHE” value ([4]; 250 g ai/ha) of the same compound?
A: Its value is 70.

Q: What about the “Pre-emerge Herbicidal Activity ABUTH” value ([5]; 63 g ai/ha) of the same compound?
A: Its value is 50.

Q: What about the “Pre-emerge Herbicidal Activity ABUTH” value ([5]; 250 g ai/ha) of the same compound?
A: Its value is 100.

Q: And the “Pre-emerge Herbicidal Activity CHEAL” value ([6]; 63 g ai/ha)?
A: Its value is 100.

Q: What about the “Pre-emerge Herbicidal Activity CHEAL” value ([6]; 250 g ai/ha) of the same compound?
A: The value was 100.

Q: And the “Pre-emerge Herbicidal Activity SORHA” value ([7]; 63 g ai/ha)?
A: The value was 30.

Q: And the “Pre-emerge Herbicidal Activity SORHA” value ([7]; 250 g ai/ha)?
A: Its value is 80.

Q: What about the “Pre-emerge Herbicidal Activity CASOB” value ([8]; 63 g ai/ha) of the same compound?
A: The value was 0.

Q: And the “Pre-emerge Herbicidal Activity CASOB” value ([8]; 250 g ai/ha)?
A: The value was 50.

Q: And the “Pre-emerge Herbicidal Activity RICE” value ([9]; 63 g ai/ha)?
A: The value was 20.

Q: What about the “Pre-emerge Herbicidal Activity RICE” value ([9]; 250 g ai/ha) of the same compound?
A: Its value is 40.

Q: What about the “Pre-emerge Herbicidal Activity CORN” value ([10]; 63 g ai/ha) of the same compound?
A: The value was 10.

Q: And the “Pre-emerge Herbicidal Activity CORN” value ([10]; 250 g ai/ha)?
A: The value was 50.

Q: And the “Pre-emerge Herbicidal Activity AMARE” value ([11]; 63 g ai/ha)?
A: The value was 100.

Q: And the “Pre-emerge Herbicidal Activity AMARE” value ([11]; 250 g ai/ha)?
A: Its value is 100.

Q: And the “phytotoxicity rating RICE (crop damage)” value ([12]; 63 g ai/ha)?
A: Its value is 30.

Q: And the “phytotoxicity rating RICE (crop damage)” value ([12]; 250 g ai/ha)?
A: The value was 40.

Q: And the “phytotoxicity rating CORN (crop damage)” value ([13]; 63 g ai/ha)?
A: The value was 15.

Q: And the “phytotoxicity rating CORN (crop damage)” value ([13]; 250 g ai/ha)?
A: Its value is 25.

Q: And the “phytotoxicity rating DIGSA” value ([14]; 63 g ai/ha)?
A: Its value is 10.

Q: And the “phytotoxicity rating DIGSA” value ([14]; 250 g ai/ha)?
A: Its value is 30.

Q: What about the “phytotoxicity rating ECHCG” value ([15]; 63 g ai/ha) of the same compound?
A: The value was 10.

Q: What about the “phytotoxicity rating ECHCG” value ([15]; 250 g ai/ha) of the same compound?
A: Its value is 20.

Q: And the “phytotoxicity rating AMARE” value ([16]; 63 g ai/ha, rating scale 0-100 (0 no damage, 100 complete death))?
A: The value was 100.

Q: What about the “phytotoxicity rating AMARE” value ([16]; 250 g ai/ha, rating scale 0-100) of the same compound?
A: The value was 100.

Q: What about the “phytotoxicity rating SETVI” value ([17]; 63 g ai/ha) of the same compound?
A: The value was 30.

Q: What about the “phytotoxicity rating SETVI” value ([17]; 250 g ai/ha) of the same compound?
A: The value was 40.

Q: And the “phytotoxicity rating IPOHE” value ([18]; 63 g ai/ha)?
A: The value was 100.

Q: And the “phytotoxicity rating IPOHE” value ([18]; 250 g ai/ha)?
A: Its value is 100.

Q: What about the “phytotoxicity rating ABUTH” value ([19]; 63 g ai/ha) of the same compound?
A: Its value is 100.

Q: And the “phytotoxicity rating ABUTH” value ([19]; 250 g ai/ha)?
A: Its value is 100.

Q: What about the “phytotoxicity rating CHEAL” value ([20]; 63 g ai/ha) of the same compound?
A: Its value is 90.

Q: What about the “phytotoxicity rating CHEAL” value ([20]; 250 g ai/ha) of the same compound?
A: The value was 100.

Q: What about the “phytotoxicity rating SORHA” value ([21]; 63 g ai/ha) of the same compound?
A: Its value is 0.

Q: And the “phytotoxicity rating SORHA” value ([21]; 250 g ai/ha)?
A: Its value is 30.

Q: And the “phytotoxicity rating CASOB” value ([22]; 63 g ai/ha)?
A: The value was 30.

Q: And the “phytotoxicity rating CASOB” value ([22]; 250 g ai/ha)?
A: The value was 70.
